Data on four molecules can be found in patent publication US10238622B2, “Methods of treating and preventing/reducing the likelihood of Mesial temporal lobe epilepsy (TLE)” (priority 2009, dated 2019).

The subject of test [1] is EC L5 neurons. The test can be described thus: Polysynaptic burst responses to single synaptic stimulation in acute brain slices 3 weeks post SE. The format is cell-based, rat. As to the method:
(§1) All experiments were performed on acute horizontal brain slices containing temporal neocortex, entorhinal cortex, subiculum and the ventral hippocampus. Control, or rats 2 or 3 weeks post-seizure, were anesthetized deeply with a mixture of ketamine and xylazine (85 and 15 mg/ml, respectively) and decapitated. The brains were removed rapidly and placed in an oxygenated (95% O2/5% CO2) ice-cold cutting solution containing (in mM): 3 KCl, 1.25 NaH2PO4, 6 MgSO4, 26 NaHCO3, 0.2 CaCl2, 10 glucose, 220 sucrose, and 0.43 ketamine. Slices (350 μm) were cut in ice-cold cutting solution with a vibratome (Dosaka DTK-1000) and transferred from there into Artificial Cerebro-Spinal Fluid (ACSF, in mM: 126 NaCl, 3 KCl, 1.25 NaH2PO4, 1 MgSO4, 26 NaHCO3, 2 CaCl2, and 10 glucose) equilibrated with 95% O2/5% CO2 at 34° C. temperature for recovery. After 1 hr ACSF was changed again, and the slices were held at room temperature until used for recording.
(§2) Individual slices were transferred to a recording chamber mounted on a fixed-stage microscope (Zeiss Axioskop, Jena, Germany) and superfused with warmed (34° C.), oxygenated ACSF at 2 ml/min. Intracellular recordings were made from EC layer 5 neurons with borosilicate glass sharp microelectrodes (80-150 MΩ) filled with either 1 M K2SO4, or 0.5 M potassium acetate/0.5 M KCl for lower electrode resistance, or 2 M CsSO4/0.1 M KCl for improved space clamp. […] Therefore all final recordings/data for bumetanide effects on GABAergic PSP reversal potential were obtained with microelectrodes filled with 1 M K2SO4 or 2 M CsSO4/0.1 M KCl.
(§3) Neurons were impaled in the medial entorhinal cortex just above the angular bundle, up to ¼ of cortex thickness, using a Nanostepper micropositioner (Scientific Precision Instruments, Oppenheim, Germany). Recordings were made using an Axoclamp 2B amplifier and digitized and recorded using an Axon Instruments Digidata 1322A (Molecular Devices, Union City, Calif.). Neurons with a RMP negative to −68 mV were tested with hyperpolarizing pulses to ˜−85 mV for the presence of Ih indicative of pyramidal neurons (Egorov et al., 2002; Egorov et al., 2003). […] Concentric bipolar stimulating electrodes (200 μm diameter, FHC Inc., ME, USA) were placed in layer 5 of EC, ˜150-250 μm from the recording electrode. Stimuli (70-100 μs, 100-800 nA) were controlled by a Master 8 programmable pulse generator connected to a stimulus isolation unit (A.M.P.I., Jerusalem, Israel). Full input-output relations for the EPSP and the IPSP were recorded, and stimulation intensities giving 70-90% of maximal response were used. Where indicated stimulation intensity was reduced to elicit 5-10% of maximal response.
For these determinations, a polysynaptic burst was defined as a post-synaptic response lasting more than 150 ms at half amplitude, elicited from −75 mV<RMP<−68 mV.

A further test relates to pilocarpine SE rat. Briefly: Seizures provoked by open field exposure 6 weeks after end of chronic bumetanide treatment (FIG. 20). As to conditions: 27 weeks post SE, 6 weeks after end of bumetanide treatment, within 15 min, n=6 rats per group. The format is in vivo. How it is done:
(§4) All procedures were approved by the Institutional Animal Care and Use Committee at the University of New Mexico Health Sciences Center and were in accordance with National Institutes of Health Guide for the Care and Use of Laboratory Animals. Our protocol for the experiments here was a slight modification of a protocol published by Andre et al. (Andre et al., 2007). Twenty four hours prior to seizure induction, male Wistar rats, 2-3 months old, were administered s.c. 3 mmol/kg lithium chloride dissolved in isotonic NaCl saline Pilocarpine was then administered s.c. (25 mg/kg in isotonic NaCl). Once generalized limbic convulsions began, subcutaneous needle EEG electrodes were placed to confirm the development of status epilepticus (SE), defined as the occurrence of continuous high amplitude EEG spiking (Ormandy et al., 1989). These needles were fashioned from 25 gauge hypodermic needles (Becton Dickinson), with the hub cut off and bent at 60 degree angles so they will stay in place. One needle was inserted subcutaneously in the scalp over the parietal cortex and the other, which served as the reference electrode, over the scapula. […] Recording was then generally discontinued. […] 12 hours after SE onset the EEG was recorded again for 5-10 min, and all rats had intermittent or organized, i.e. bursts of EEG spiking. […]

Test [2] has as its system Li-pilocarpine SE rats. The test can be described thus: Seizures after acute bumetanide injection, video recordings, 12-17 weeks after SE (FIG. 12). The format is in vivo, rat. Conditions: bumetanide 0.2 mg/kg body weight i.p., 12-17 weeks after Li-pilocarpine SE, n=5 rats. As to the method:
All procedures were approved by the Institutional Animal Care and Use Committee at the University of New Mexico Health Sciences Center and were in accordance with National Institutes of Health Guide for the Care and Use of Laboratory Animals. Our protocol for the experiments here was a slight modification of a protocol published by Andre et al. (Andre et al., 2007). Twenty four hours prior to seizure induction, male Wistar rats, 2-3 months old, were administered s.c. 3 mmol/kg lithium chloride dissolved in isotonic NaCl saline Pilocarpine was then administered s.c. (25 mg/kg in isotonic NaCl). Once generalized limbic convulsions began, subcutaneous needle EEG electrodes were placed to confirm the development of status epilepticus (SE), defined as the occurrence of continuous high amplitude EEG spiking (Ormandy et al., 1989). These needles were fashioned from 25 gauge hypodermic needles (Becton Dickinson), with the hub cut off and bent at 60 degree angles so they will stay in place. […] 12 hours after SE onset the EEG was recorded again for 5-10 min, and all rats had intermittent or organized, i.e. bursts of EEG spiking.
Five Li-pilocarpine SE rats were subjected to a sequence of bumetanide or vehicle injections (5% ethanol in physiological saline, i.p., dates given on bottom line), and seizures occurring in the following 8 hours were analyzed by video recordings.

Test [3] concerns Li-pilocarpine SE rats. Briefly: Spontaneous seizures with chronic bumetanide via the drinking water, 8 hour video recording (FIG. 18, 19). Format: in vivo, rat. How it is done:
as §4

The subject of test [4] is EC L5 neurons. Briefly: GABAAergic PSP reversal potential, sharp microelectrode recording in acute brain slices 3 weeks post SE. Format: cell-based, rat. As to the method: as §1, §2, §3
In a further test the test system is adult rat TLE model. As to conditions: infusion of very high doses, first 2 weeks after SE; cited from earlier work.
The test system of a further test is post SE rats. Briefly: Entering-a-dark box behavior in an open field (FIG. 21). Format: in vivo, rat. As to conditions: chronic bumetanide from day 16 post SE for 12 weeks, 8 rats; control rats 78%, untreated post SE rats 15%. As to the method:
as §4

Test [5] deals with Li-pilocarpine SE rats. The test can be described thus: Lithium-pilocarpine status epilepticus induction, drugs given 1 hour after SE onset. Conditions: Diazepam 4 mg/kg i.m.; for effect on seizures (status epilepticus): given 1 hour after SE onset, Atropine sulfate 10 mg/kg s.c. The format is in vivo, rat. How it is done:
All procedures were approved by the Institutional Animal Care and Use Committee at the University of New Mexico Health Sciences Center and were in accordance with National Institutes of Health Guide for the Care and Use of Laboratory Animals. Our protocol for the experiments here was a slight modification of a protocol published by Andre et al. (Andre et al., 2007). Twenty four hours prior to seizure induction, male Wistar rats, 2-3 months old, were administered s.c. 3 mmol/kg lithium chloride dissolved in isotonic NaCl saline Pilocarpine was then administered s.c. (25 mg/kg in isotonic NaCl). Once generalized limbic convulsions began, subcutaneous needle EEG electrodes were placed to confirm the development of status epilepticus (SE), defined as the occurrence of continuous high amplitude EEG spiking (Ormandy et al., 1989). These needles were fashioned from 25 gauge hypodermic needles (Becton Dickinson), with the hub cut off and bent at 60 degree angles so they will stay in place. One needle was inserted subcutaneously in the scalp over the parietal cortex and the other, which served as the reference electrode, over the scapula. […] Recording was then generally discontinued. Atropine sulfate (10 mg/kg s.c.) and Diazepam (4 mg/kg i.m.) were administered in order to improve survival, decrease anxiety and induce muscle relaxation. […] 12 hours after SE onset the EEG was recorded again for 5-10 min, and all rats had intermittent or organized, i.e. bursts of EEG spiking.

As to `CCCCNc1cc(C(=O)O)cc(S(N)(=O)=O)c1Oc1ccccc1` [bumetanide], the “neurons with a polysynaptic response after washout of bumetanide” value in the test with EC L5 neurons [1] (30 min washout, n=14) was 35.1%. In addition, in the test on EC L5 neurons [1] (bumetanide 10 μM, 3 weeks post SE), the “decrease of response duration at half-maximal amplitude in bumetanide” value is reported as 36±9 % of the control response. For the same molecule, the “neurons with a polysynaptic response in bumetanide” value in the test with EC L5 neurons [1] (bumetanide 10 μM, cells from rats 3 weeks after pilocarpine insult, n=14, 64.8% before drug) is recorded as 11.6%. Moreover, the “response duration at half-maximal amplitude during washout of bumetanide” value with EC L5 neurons [1] (recovered to, relative to control response) amounted to 75±11%. Moreover, the “seizures provoked by open field exposure as % of time post SE-matched control SE rats” value with pilocarpine SE rat is given as “less than 15%”. Moreover, the “seizures occurring in the 8 hours following injection” value in the test with Li-pilocarpine SE rats [2] was “suppression of seizures”. Also, the “rats in which bumetanide prevented seizures completely” value in the test on Li-pilocarpine SE rats [3] (bumetanide via the drinking water, 0.65±0.13 mg/day, two other rats had reduced seizures) came out at 4 rats. Moreover, the “seizure occurrence as % of seizures in time post SE-matched control SE rats” value in the test on Li-pilocarpine SE rats [3] (three and six weeks after end of 20 weeks chronic bumetanide via drinking water, n=6 rats per group) is recorded as 15-22%. In the test with EC L5 neurons [4] (3 weeks after SE, CNQX 10 μM and APV 50 μM present, shifts from −29.7 mV), the “E(PSP) of an EC L5 neuron after a 20 min exposure to bumetanide (FIG. 10A)” value is on record as −60.9 mV. For the same molecule, the “reduction of driving force at −45 mV versus control rats” value with EC L5 neurons [4] (3 weeks after SE, in the presence of bumetanide) is listed as roughly 42%. The “driving force for Cl− at −45 mV in the presence of bumetanide” value with EC L5 neurons [4] (3 weeks after SE, ˜26 mV in control rats) is recorded as roughly 15 mV. The “absolute voltage average E(PSP) during washout of bumetanide” value in the test on EC L5 neurons [4] (3 weeks post SE, n=5) is −34.2±3.4 mV. Also, in the test with EC L5 neurons [4] (bumetanide 10 μM, EC L5 neurons 3 weeks post SE, RMP ˜−72 mV, more than +40 mV without drug), the “average PSP reversal potential relative to RMP” value is reported as “+10 mV”. In addition, the “suppression of SRS by bumetanide treatment” value with adult rat TLE model is “complete failure”. In addition, the “trials in which rats entered the dark box” value in the test with post SE rats is 67 % of trials.

Take picrotoxin: in the test on EC L5 neurons [1] (picrotoxin 100 μM, 3 weeks post SE, n=8 neurons, 9.8±0.8 before drug), the “number of spikes in polysynaptic burst responses in picrotoxin” value was 7.9±0.7 spikes per response. For the same molecule, in the test with EC L5 neurons [1] (picrotoxin 100 μM, FIG. 11D), the “burst duration in picrotoxin, result in words” value is “did not reach statistical significance”. The “reduction of action potential amplitudes in the averaged burst responses” value with EC L5 neurons [1] (picrotoxin 100 μM, averages of ten responses, n=8, p=0.094) is reported as 10.5±3.4%. In addition, the “decrease of the duration of polysynaptic bursts” value in the test with EC L5 neurons [1] (picrotoxin 100 μM, trend, n=8, p=0.094) is 10.5%.

In the case of `CN1[C@@H]2CC[C@H]1CC(OC(=O)C(CO)c1ccccc1)C2.CN1[C@@H]2CC[C@H]1CC(OC(=O)C(CO)c1ccccc1)C2.O=S(=O)(O)O` (stereo partly shown) [atropine, Atropine sulfate], in the test on Li-pilocarpine SE rats [5], the “effect on seizures (status epilepticus)” value is “Nor did atropine stop seizures”.

In the case of `CN1C(=O)CN=C(c2ccccc2)c2cc(Cl)ccc21` [Diazepam], in the test on Li-pilocarpine SE rats [5], the muscle relaxation result is “induced muscle relaxation within one hour” and the “effect on seizures (status epilepticus)” value is “did not stop seizures”.
